Experimental data as given in patent US8877748B2, “Heterocyclic fused anthraquinone derivatives, manufacturing method and pharmaceutical composition using thereof” (National Defense Medical Center, priority 2012, dated 2014).

Columns and labels:
[1] = system: PC-3 prostate cancer cell line; assay: SRB assay cell viability, PC-3 prostate cancer cell line; type: cell-based, human; conditions: Homo sapiens, PC-3 prostate cancer cell line, Table II prints no unit, μM printed, read-out: SRB assay: 50% inhibition of cancer cell proliferation of sample concentration (IC50) of PC-3 prostate cancer cell line
HL-60, TB = assay: NCI one-dose screening, leukemia HL-60, TB; type: cell-based, human; conditions: 10 μM
MOLT-4 = assay: NCI one-dose screening, leukemia MOLT-4; type: cell-based, human; conditions: 10 μM
SR = assay: NCI one-dose screening, leukemia SR; type: cell-based, human; conditions: 10 μM
PRMI-8226 cell line = assay: NCI one-dose screening, leukemia PRMI-8226; type: cell-based, human; conditions: 10 μM
K562cell line = assay: NCI one-dose screening, leukemia K562; type: cell-based, human; conditions: 10 μM
HOP-62 = assay: NCI one-dose screening, non-small cell lung cancer HOP-62; type: cell-based, human; conditions: 10 μM
NCI-H226 = assay: NCI one-dose screening, non-small cell lung cancer NCI-H226; type: cell-based, human; conditions: 10 μM
NCI-H23 = assay: NCI one-dose screening, non-small cell lung cancer NCI-H23; type: cell-based, human; conditions: 10 μM
NCI-H322M = assay: NCI one-dose screening, non-small cell lung cancer NCI-H322M; type: cell-based, human; conditions: 10 μM; Non-small cell lung cancer
NCI-H460 = assay: NCI one-dose screening, non-small cell lung cancer NCI-H460; type: cell-based, human; conditions: 10 μM
NCI-H522 = assay: NCI one-dose screening, non-small cell lung cancer NCI-H522; type: cell-based, human; conditions: 10 μM
A549/ATCC = assay: NCI one-dose screening, non-small cell lung cancer A549/ATCC; type: cell-based, human; conditions: 10 μM
COLO 205 = assay: NCI one-dose screening, colon cancer COLO 205; type: cell-based, human; conditions: 10 μM
HCC-2998 = assay: NCI one-dose screening, colon cancer HCC-2998; type: cell-based, human; conditions: 10 μM
HCT-116 = assay: NCI one-dose screening, colon cancer HCT-116; type: cell-based, human; conditions: 10 μM
HCT-15 = assay: NCI one-dose screening, colon cancer HCT-15; type: cell-based, human; conditions: 10 μM
KM12 = assay: NCI one-dose screening, colon cancer KM12; type: cell-based, human; conditions: 10 μM
HT29 = assay: NCI one-dose screening, colon cancer HT29; type: cell-based, human; conditions: 10 μM
SF-268 = assay: NCI one-dose screening, CNS cancer SF-268; type: cell-based, human; conditions: 10 μM
SF-539 = assay: NCI one-dose screening, CNS cancer SF-539; type: cell-based, human; conditions: 10 μM
SNB-19 = assay: NCI one-dose screening, CNS cancer SNB-19; type: cell-based, human; conditions: 10 μM
SNB-75 = assay: NCI one-dose screening, CNS cancer SNB-75; type: cell-based, human; conditions: 10 μM
U251 = assay: NCI one-dose screening, CNS cancer U251; type: cell-based, human; conditions: 10 μM
LOX IMVI = assay: NCI one-dose screening, melanoma LOX IMVI; type: cell-based, human; conditions: 10 μM
MALME-3M = assay: NCI one-dose screening, melanoma MALME-3M; type: cell-based, human; conditions: 10 μM
M14 = assay: NCI one-dose screening, melanoma M14; type: cell-based, human; conditions: 10 μM
UACC-62 = assay: NCI one-dose screening, melanoma UACC-62; type: cell-based, human; conditions: 10 μM
UACC-257 = assay: NCI one-dose screening, melanoma UACC-257; type: cell-based, human; conditions: 10 μM
SK-MEL-2 = assay: NCI one-dose screening, melanoma SK-MEL-2; type: cell-based, human; conditions: 10 μM
SK-MEL-28 = assay: NCI one-dose screening, melanoma SK-MEL-28; type: cell-based, human; conditions: 10 μM
SK-MEL-5 = assay: NCI one-dose screening, melanoma SK-MEL-5; type: cell-based, human; conditions: 10 μM
IGROV1 = assay: NCI one-dose screening, ovarian cancer IGROV1; type: cell-based, human; conditions: 10 μM
OVCAR-3 = assay: NCI one-dose screening, ovarian cancer OVCAR-3; type: cell-based, human; conditions: 10 μM
OVCAR-4 = assay: NCI one-dose screening, ovarian cancer OVCAR-4; type: cell-based, human; conditions: 10 μM
OVCAR-5 = assay: NCI one-dose screening, ovarian cancer OVCAR-5; type: cell-based, human; conditions: 10 μM
OVCAR-8 = assay: NCI one-dose screening, ovarian cancer OVCAR-8; type: cell-based, human; conditions: 10 μM
786-O = assay: NCI one-dose screening, renal cancer 786-O; type: cell-based, human; conditions: 10 μM
ACHN = assay: NCI one-dose screening, renal cancer ACHN; type: cell-based, human; conditions: 10 μM
SN12C = assay: NCI one-dose screening, renal cancer SN12C; type: cell-based, human; conditions: 10 μM
TK-10 = assay: NCI one-dose screening, renal cancer TK-10; type: cell-based, human; conditions: 10 μM
RXF, 393 = assay: NCI one-dose screening, renal cancer RXF, 393; type: cell-based, human; conditions: 10 μM
NCl/ADR-RES = assay: NCI one-dose screening, breast cancer NCl/ADR-RES; type: cell-based, human; conditions: 10 μM; listed under Ovarian cancer

For `O=C1c2ccccc2C(=O)c2c1cc(SCc1ccc(Cl)cc1)c1nsnc21` [C56, 4-(4-chloro-benzylthio)anthra[2,1-c] [1,2,5]thiadiazol-6,11-dione], the IC50 [1] was greater than 15 µM, the “Growth Percent HL-60(TB)” value (HL-60, TB) was 57.42% and the “Growth Percent MOLT-4” value (MOLT-4) was 22.72%. The “Growth Percent SR” value (SR) was 63.73%, the “Growth Percent RPMI-8226” value (PRMI-8226 cell line) was 86.78% and the “Growth Percent K562” value (K562cell line) was 67.53%. The “Growth Percent HOP-62” value (HOP-62) was 89.15%, the “Growth Percent NCI-H226” value (NCI-H226) was 82.14% and the “Growth Percent NCI-H23” value (NCI-H23) was 82.13%. The “Growth Percent NCI-H322M” value (NCI-H322M) was 94.10%, the “Growth Percent NCI-H460” value (NCI-H460) was 104.55% and the “Growth Percent NCI-H522” value (NCI-H522) was 82.61%. For the same molecule, the “Growth Percent A549/ATCC” value (A549/ATCC) was 100.62%, the “Growth Percent COLO 205” value (COLO 205) was 99.94% and the “Growth Percent HCC-2998” value (HCC-2998) was 102.54%. For the same molecule, the “Growth Percent HCT-116” value (HCT-116) was 114.73%, the “Growth Percent HCT-15” value (HCT-15) was 97.91% and the “Growth Percent KM12” value (KM12) was 105.46%. For the same molecule, the “Growth Percent HT29” value (HT29) was 96.41%, the “Growth Percent SF-268” value (SF-268) was 107.19% and the “Growth Percent SF-539” value (SF-539) was 97.95%. For the same molecule, the “Growth Percent SNB-19” value (SNB-19) was 104.30%, the “Growth Percent SNB-75” value (SNB-75) was 63.35% and the “Growth Percent U251” value (U251) was 94.44%. The “Growth Percent LOX IMVI” value (LOX IMVI) was 86.69%, the “Growth Percent MALME-3M” value (MALME-3M) was 86.38% and the “Growth Percent M14” value (M14) was 126.40%. The “Growth Percent UACC-62” value (UACC-62) was 101.52%, the “Growth Percent UACC-257” value (UACC-257) was 78.70% and the “Growth Percent SK-MEL-2” value (SK-MEL-2) was 109.63%. The “Growth Percent SK-MEL-28” value (SK-MEL-28) was 95.35%, the “Growth Percent SK-MEL-5” value (SK-MEL-5) was 89.57% and the “Growth Percent IGROV1” value (IGROV1) was 84.25%. For the same molecule, the “Growth Percent OVCAR-3” value (OVCAR-3) was 113.46%, the “Growth Percent OVCAR-4” value (OVCAR-4) was 84.19% and the “Growth Percent OVCAR-5” value (OVCAR-5) was 104.48%. For the same molecule, the “Growth Percent OVCAR-8” value (OVCAR-8) was 94.19%, the “Growth Percent 786-0” value (786-O) was 117.98% and the “Growth Percent ACHN” value (ACHN) was 94.35%. For the same molecule, the “Growth Percent SN12C” value (SN12C) was 93.61%, the “Growth Percent TK-10” value (TK-10) was 121.91% and the “Growth Percent RXF 393” value (RXF, 393) was 104.79%. The “Growth Percent NCI/ADR-RES” value (NCl/ADR-RES) was 95.73% and the melting point was 261 to 262 °C.
